Legend:
lambsquarters [1] = experiment: Test Example 5: herbicidal effect by foliage application, plastic box (Table 20, symbol O); format: in vivo, lambsquarters (Chenopodium album); settings: foliage application, AAH 320 g/ha, three weeks after application
Summary of the method: (§1)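 Plants sown in sterilized diluvial soil and grown 14 days in a greenhouse at 25° C to 30° C, then sprayed on the foliage with the compound's emulsion diluted in water to a predetermined herbicide amount. Injury to weeds and crops scored three weeks after application on a visual rating scale.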

Chinese sprangletop = experiment: Test Example 3: herbicidal effect by foliage application, Wagner pot (Table 18, symbol D); format: in vivo, chinese sprangletop (Leptochloa chinensis); settings: 320 g/ha
Summary of the method: (§2)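 Plants were sown in alluvial soil held under 0.1–0.5 cm standing water and grown 14 days in a greenhouse at 25–30 °C. An emulsifiable formulation, water-diluted to the set dose, was then sprayed onto the foliage, and effects were scored three weeks later using previously defined criteria.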

windgrass = experiment: Test Example 4: herbicidal effect by soil treatment (Table 19, symbol L); format: in vivo, windgrass (Apera spica-venti); settings: AAH 320 g/ha
Summary of the method: (§3)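 Seeds were sown in sterilized diluvial soil and covered with about 1.5 cm of soil. An emulsion formulation diluted with water to a predetermined herbicide amount was sprayed evenly onto the soil surface. Plants grew in a greenhouse at 25° C. to 30° C., and the effect was scored three weeks after application using criteria from an earlier test.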

late watergrass [2] = experiment: Test Example 2: herbicidal activity, application during weed generation under submerged conditions (Table 17, symbol A); format: in vivo, late watergrass (Echinochloa oryzicola); settings: AAH 320 g/ha; application during weed generation, submerged conditions
Summary of the method: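 3-wk visual-criteria score after one water-surface dose. Emulsion formulation, water-diluted to set rate; applied at 1–2 leaf stage; alluvial soil, 4 cm standing water; seeds co-sown; greenhouse 25–30° C.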

late watergrass [3] = experiment: Test Example 1: herbicidal activity, application before weed generation under submerged conditions (Table 16, symbol A); format: in vivo, late watergrass (Echinochloa oryzicola); settings: 320 g/ha applied herbicide
Summary of the method: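 Emulsion formulation, water-diluted to set dose, was put onto the flooded surface (4 cm depth, alluvial soil) the same day weeds were sown and 2.5-leaf rice transplanted. After 3 weeks at 25-30 °C under glass, each species was rated 0 (≤5% kill) to 5 (≥90% kill).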

barnyard grass = experiment: Test Example 5: herbicidal effect by foliage application, plastic box (Table 20, symbol H); format: in vivo, barnyard grass (Echinochloa crus-galli); settings: foliage application, AAH 320 g/ha, three weeks after application
Summary of the method: as §1

Italian ryegrass [4] = experiment: Test Example 4: herbicidal effect by soil treatment (Table 19, symbol K); format: in vivo, Italian ryegrass (Lolium multiflorum); settings: AAH 320 g/ha
Summary of the method: as §3

lambsquarters [5] = experiment: Test Example 4: herbicidal effect by soil treatment (Table 19, symbol O); format: in vivo, lambsquarters (Chenopodium album); settings: AAH 320 g/ha
Summary of the method: as §3

chickweed [6] = experiment: Test Example 5: herbicidal effect by foliage application, plastic box (Table 20, symbol P); format: in vivo, common chickweed (Stellaria media); settings: foliage application, AAH 320 g/ha, three weeks after application
Summary of the method: as §1

wild oat [7] = experiment: Test Example 4: herbicidal effect by soil treatment (Table 19, symbol I); format: in vivo, wild oat (Avena fatua); settings: AAH 320 g/ha
Summary of the method: as §3

Italian ryegrass [8] = experiment: Test Example 5: herbicidal effect by foliage application, plastic box (Table 20, symbol K); format: in vivo, Italian ryegrass (Lolium multiflorum); settings: foliage application, AAH 320 g/ha, three weeks after application
Summary of the method: as §1

redroot pigweed = experiment: Test Example 5: herbicidal effect by foliage application, plastic box (Table 20, symbol N); format: in vivo, redroot pigweed (Amaranthus retroflexus); settings: foliage application, AAH 320 g/ha, three weeks after application
Summary of the method: as §1

southern crabgrass = experiment: Test Example 4: herbicidal effect by soil treatment (Table 19, symbol F); format: in vivo, southern crabgrass (Digitaria ciliaris); settings: AAH 320 g/ha
Summary of the method: as §3

rice flat sedge = experiment: Test Example 3: herbicidal effect by foliage application, Wagner pot (Table 18, symbol E); format: in vivo, rice flat sedge (Cyperus iria); settings: 320 g/ha
Summary of the method: as §2

chickweed [9] = experiment: Test Example 4: herbicidal effect by soil treatment (Table 19, symbol P); format: in vivo, common chickweed (Stellaria media); settings: AAH 320 g/ha
Summary of the method: as §3

wild oat [10] = experiment: Test Example 5: herbicidal effect by foliage application, plastic box (Table 20, symbol I); format: in vivo, wild oat (Avena fatua); settings: foliage application, AAH 320 g/ha, three weeks after application
Summary of the method: as §1

Row | SMILES | O: lambsquarters, herbicidal effect (lambsquarters [1]) | herbicidal effect on D (Chinese sprangletop), rating 0-5 (Chinese sprangletop) | L: windgrass, herbicidal effect rating (windgrass) | herbicidal effect rating, A: late watergrass (late watergrass [2]) | Herbicidal effect on A: late watergrass (grade 0-5) (late watergrass [3]) | H: barnyard grass, herbicidal effect (barnyard grass) | K: Italian ryegrass, herbicidal effect rating (Italian ryegrass [4]) | O: lambsquarters, herbicidal effect rating (lambsquarters [5]) | P: chickweed, herbicidal effect (chickweed [6]) | I: wild oat, herbicidal effect rating (wild oat [7]) | K: Italian ryegrass, herbicidal effect (Italian ryegrass [8]) | N: redroot pigweed, herbicidal effect (redroot pigweed) | F: southern crabgrass, herbicidal effect rating (southern crabgrass) | herbicidal effect on E (rice flat sedge), rating 0-5 (rice flat sedge) | P: chickweed, herbicidal effect rating (chickweed [9]) | I: wild oat, herbicidal effect (wild oat [10])
1 | Cc1nn(C)c(=O)c(-c2c(-c3ccc([N+](=O)[O-])cc3)sc3ccccc23)c1O [1-151] | 5 (Herbicidal rate of 90% or more (almost completely withered)) | 3 (Herbicidal rate of 40% or more and less than 70%) | 0 (Herbicidal rate of 5% or less (almost no effect)) | 0 (Herbicidal rate of 5% or less (almost no effect)) | 3 (Herbicidal rate of 40% or more and less than 70%) | 3 (Herbicidal rate of 40% or more and less than 70%) | 3 (Herbicidal rate of 40% or more and less than 70%) | 2 (Herbicidal rate of 20% or more and less than 40%) | 5 (Herbicidal rate of 90% or more (almost completely withered)) | 0 (Herbicidal rate of 5% or less (almost no effect)) | 5 (Herbicidal rate of 90% or more (almost completely withered)) | 5 (Herbicidal rate of 90% or more (almost completely withered)) | 0 (Herbicidal rate of 5% or less (almost no effect)) | 5 (Herbicidal rate of 90% or more (almost completely withered)) | 0 (Herbicidal rate of 5% or less (almost no effect)) | 0 (Herbicidal rate of 5% or less (almost no effect))
2 | CCCC(=O)Oc1c(C)nn(C)c(=O)c1-c1c(-c2ccc([N+](=O)[O-])cc2)sc2ccccc12 [1-152] | 4 (Herbicidal rate of 70% or more and less than 90%) | 5 (Herbicidal rate of 90% or more (almost completely withered)) | 0 (Herbicidal rate of 5% or less (almost no effect)) | 3 (Herbicidal rate of 40% or more and less than 70%) | 4 (Herbicidal rate of 70% or more and less than 90%) | 4 (Herbicidal rate of 70% or more and less than 90%) | 0 (Herbicidal rate of 5% or less (almost no effect)) | 0 (Herbicidal rate of 5% or less (almost no effect)) | 5 (Herbicidal rate of 90% or more (almost completely withered)) | 0 (Herbicidal rate of 5% or less (almost no effect)) | 4 (Herbicidal rate of 70% or more and less than 90%) | 5 (Herbicidal rate of 90% or more (almost completely withered)) | 1 (Herbicidal rate of 5% or more and less than 20%) | 3 (Herbicidal rate of 40% or more and less than 70%) | 3 (Herbicidal rate of 40% or more and less than 70%) | 0 (Herbicidal rate of 5% or less (almost no effect))

— patent US20230085307A1, “PYRIDAZINONE COMPOUND AND HERBICIDE” (NISSAN CHEMICAL CORPORATION, priority 2019, published 2023)
